The nature of this data set: hygroscopicity of the salt forms. The class given is physicochemical. To be noted: solid salt; considered to be non-hygroscopic.
For the compound `CC(C)c1c(C(=O)Nc2ccccc2)c(-c2ccccc2)c(-c2ccc(F)cc2)n1CC[C@@H](O)C[C@@H](O)CC(=O)O.c1ccc(CCNCc2ccccc2)cc1` (relative stereo) [benethamine, [R—(R*,R*)]-2-(4-Fluorophenyl)-β,δ-dihydroxy-5-(1-methylethyl)-3-phenyl-4-[(phenylamino)carbonyl]-1H-pyrrole-1-heptanoic acid, N-benzyl-2-phenylethylamine], the hygroscopicity entry was “non-hygroscopic”. As to `CC(C)c1c(C(=O)Nc2ccccc2)c(-c2ccccc2)c(-c2ccc(F)cc2)n1CC[C@@H](O)C[C@@H](O)CC(=O)O.c1ccc(CNCCNCc2ccccc2)cc1` (relative stereo) [benzathine, [R—(R*,R*)]-2-(4-Fluorophenyl)-β,δ-dihydroxy-5-(1-methylethyl)-3-phenyl-4-[(phenylamino)carbonyl]-1H-pyrrole-1-heptanoic acid,N,N^1-bis(phenylmethyl)-1,2-ethanediamine], the hygroscopicity result is recorded as “non-hygroscopic”. For “[R—(R*,R*)]-2-(4-Fluorophenyl)-β,δ-dihydroxy-5-(1-methylethyl)-3-phenyl-4-[(phenylamino)carbonyl]-1H-pyrrole-1-heptanoic acid, tertiary-butylamine [erbumine]”, the hygroscopicity result is recorded as “non-hygroscopic”.

Turning to “[R—(R*,R*)]-2-(4-Fluorophenyl)-β,δ-dihydroxy-5-(1-methylethyl)-3-phenyl-4-[(phenylamino)carbonyl]-1H-pyrrole-1-heptanoic acid, tetrahydro-2H-1,4-oxazine [morpholine]”, the hygroscopicity result is “non-hygroscopic”. With “[R—(R*,R*)]-2-(4-Fluorophenyl)-β,δ-dihydroxy-5-(1-methylethyl)-3-phenyl-4-[(phenylamino)carbonyl]-1H-pyrrole-1-heptanoic acid,N-(phenylmethyl)benzenemethanamine [dibenzylamine]” the entry was “non-hygroscopic”; with “[R—(R*,R*)]-2-(4-Fluorophenyl)-β,δ-dihydroxy-5-(1-methylethyl)-3-phenyl-4-[(phenylamino)carbonyl]-1H-pyrrole-1-heptanoic acid,N-ethylethanamine [diethylamine]”, “non-hygroscopic”.
